# Reference: the supplement of paper PMC10883282
# Tests used:
# Test in all cases: standardised AUC of viability dose-response curve (72 h) (fraction (0-1)); higher = less growth inhibition (more resistant)
# [1] = test system: A204
# Procedure, shortened: (§1)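 Viability of sarcoma cell lines was read with ATPLite after 72 h of triplicate treatment in 384-well plates with 2.5 µl of compound from a compound-plate series of 10 mM to 0.0002 mM. Viability was scaled 1 (full) to 0 (none) and fitted with a four-parameter log-logistic model for each drug and cell line. The reported standardised area under the dose-response curve in log-dose space comes from a modified drexplorer computeAUC, where 1 is no response and 0 is full response.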
# [2] = test system: G401
# Procedure, shortened: as §1
# [3] = test system: HS729
# Procedure, shortened: as §1
# [4] = test system: HT1080
# Procedure, shortened: as §1
# [5] = test system: KHOS-240S
# Procedure, shortened: as §1
# [6] = test system: KHOS-NP
# Procedure, shortened: as §1
# [7] = test system: MES-SA
# Procedure, shortened: as §1
# [8] = test system: RD-ES
# Procedure, shortened: as §1
# [9] = test system: RD
# Procedure, shortened: as §1
# [10] = test system: SK-ES-1
# Procedure, shortened: as §1
# [11] = test system: SK-LMS-1
# Procedure, shortened: as §1
# [12] = test system: SW1353
# Procedure, shortened: as §1
# [13] = test system: SW684
# Procedure, shortened: as §1
# [14] = test system: SW872
# Procedure, shortened: as §1
# [15] = test system: SW982
# Procedure, shortened: as §1
# [16] = test system: SYO-1
# Procedure, shortened: as §1
# [17] = test system: VA-ES-BJ
# Procedure, shortened: as §1
SMILES,standardised AUC [1],standardised AUC [2],standardised AUC [3],standardised AUC [4],standardised AUC [5],standardised AUC [6],standardised AUC [7],standardised AUC [8],standardised AUC [9],standardised AUC [10],standardised AUC [11],standardised AUC [12],standardised AUC [13],standardised AUC [14],standardised AUC [15],standardised AUC [16],standardised AUC [17]
COc1cc2c(Oc3ccc4[nH]c(C)cc4c3F)ncnc2cc1OCCCN1CCCC1 [CEDIRANIB],0.622,0.797,0.929,0.996,0.939,0.98,0.91,0.987,0.966,0.917,0.966,0.922,0.995,0.986,0.959,0.743,1
CC(C)(C)c1cc(NC(=O)Nc2ccc(-c3cn4c(n3)sc3cc(OCCN5CCOCC5)ccc34)cc2)no1 [QUIZARTINIB],0.745,0.958,0.939,0.964,0.954,0.964,0.93,0.989,0.977,0.924,0.94,0.978,0.966,0.986,0.992,0.879,0.976
Cc1cc(C)c(/C=C2\C(=O)Nc3ccccc32)[nH]1 [SEMAXANIB],0.888,0.983,0.938,0.983,0.939,0.98,0.976,0.968,0.993,0.978,0.954,0.979,0.939,0.993,0.936,0.857,0.947
CC(=O)Nc1cccc(-n2c(=O)n(C3CC3)c(=O)c3c(Nc4ccc(I)cc4F)n(C)c(=O)c(C)c32)c1 [TRAMETINIB],0.782,0.651,0.761,0.577,0.783,0.523,0.827,0.989,0.65,0.958,0.533,0.709,0.714,0.619,0.897,0.825,0.756
Cc1ccc(F)c(NC(=O)Nc2ccc(-c3cccc4[nH]nc(N)c34)cc2)c1 [LINIFANIB],0.74,0.948,0.884,0.994,0.983,0.955,0.973,0.994,1,0.964,1,0.993,0.996,0.972,1,0.879,1
CNC(=O)c1ccc(-c2cnc3ncc(Cc4ccc5ncccc5c4)n3n2)cc1F [CAPMATINIB],0.971,0.973,0.989,0.976,0.986,0.998,0.982,1,0.995,1,0.68,1,0.958,0.989,0.985,1,0.873
C=CC(=O)N1CCC[C@@H](n2nc(-c3ccc(Oc4ccccc4)cc3)c3c(N)ncnc32)C1 [IBRUTINIB],0.967,0.973,0.941,1,0.954,0.966,0.948,0.994,0.997,0.991,0.978,0.85,0.997,0.934,0.992,0.892,0.995
CCCS(=O)(=O)Nc1ccc(F)c(C(=O)c2c[nH]c3ncc(-c4ccc(Cl)cc4)cc23)c1F [VEMURAFENIB],0.977,0.992,0.978,0.983,0.979,0.983,0.956,0.989,0.978,0.959,0.93,0.946,0.97,0.802,0.949,0.978,0.983
O=C(Nc1cnn2ccc(N3CCC[C@@H]3c3cc(F)ccc3F)nc12)N1CC[C@H](O)C1 [LAROTRECTINIB],0.992,0.98,0.886,0.996,0.988,0.969,0.982,0.994,0.995,0.982,0.961,0.936,0.985,0.953,0.996,0.92,0.969
C=CC(=O)Nc1cccc(Oc2nc(Nc3ccc(N4CCN(C)CC4)cc3)nc3ccsc23)c1 [OLMUTINIB],0.98,0.964,0.931,0.951,0.954,0.993,0.945,0.982,0.951,0.936,0.927,0.918,0.899,0.964,0.907,0.923,0.939
N#CC[C@H](C1CCCC1)n1cc(-c2ncnc3[nH]ccc23)cn1 [RUXOLITINIB],0.951,0.97,0.951,0.994,0.944,0.977,0.944,0.989,0.992,0.981,0.987,0.982,0.948,0.945,0.936,0.978,0.973
C=CC(=O)N1CCC([C@@H]2CCNc3c(C(N)=O)c(-c4ccc(Oc5ccccc5)cc4)nn32)CC1 [ZANUBRUTINIB],0.957,0.977,0.964,0.987,0.976,1,0.981,0.974,0.966,0.977,1,0.934,0.97,0.941,0.941,0.974,0.973
